Reference: patent US6656959B1, “PDE IV inhibiting pyridine derivatives” (Janssen Pharmaceutica N.V., priority 2000, dated 2003)

Biological target: T1, recombinant human MNL phosphodiesterase type IV B (Homo sapiens, UniProt Q07343)
T1 construct: FLAG; made in house; host or cells: insect cells infected with recombinant baculovirus
Assay: Inhibition of recombinant human mononuclear lymphocyte (MNL) phosphodiesterase type IV B produced in insect cells with a baculovirus vector
Type: biochemical
Details: remaining enzyme activity versus control
Procedure: Inhibition of Recombinant Human Mononuclear Lymphocyte (MNL) Phosphodiesterase Type IV B Produced in Insect Cells with a Baculovirus Vector
The alleviating and/or curing effect of the instant compounds on allergic and atopic diseases was assessed by an in vitro assay system to detect an inhibiting effect on the recombinant human MNL phosphodiesterase type IV B.
Seventy-two hours after infection with recombinant baculovirus, the insect cells were harvested and pelleted at 500 g for 5 minutes. The cells were lysed in 10 ml lysis-buffer consisting of 20 mM Tris, 10 mM EGTA, 2 mM Na2EDTA, 1% Triton-X-100, 1 mM Na3VO4, 10 mM NaF, 2 μg/ml of leupeptine, pepstatine and aprotinine, 0.3 μg/ml benzamidine and 100 μg/ml TPCK pH 7.5. After 5 minutes on ice, solubilized cells were centrifuged at 4000 rpm for 15 minutes at 4° C. The resulting supernatant was filtered through a 0.45 μm filter (Millipore) and brought to TBS buffer (50 mM Tris, 150 mM NaCl pH 7.4).
The supernatant containing phosphodiesterase (PDE) type IV B, was subsequently loaded onto a 5 ml anti-FLAG-M2 affinity gel column, previously activated with 5 ml 100 mM glycine pH 3.5 and equilibrated with 20 ml 50 mM Tris, 150 mM NaCl pH 7.4. After washing the column with equilibration buffer, PDE IV was eluted in 1.5 ml fractions containing 37.5 μl IM Tris pH 8. The fractions were dialyzed overnight against 20 mM Tris, 2mM Na2EDTA and 400 mM NaCl pH 7.5 and tested for PDE IV activity. Identification was done on SDS PAGE and Western Blot (anti-FLAG-M2). Active fractions were pooled, brought to 10% glycerol and stored at −70° C.
The incubation mixture (pH 8) (200 μl) contained 20 mM Tris, 10 mM magnesium sulphate, 0.8 μM ^3H-cAMP (310 mCi/mmole) and the phosphodiesterase type IV, the amount depending on the enzymatic activity. […]
The inhibiting effect of the present compounds on recombinant human MNL phosphodiesterase PDE IV B was measured at different concentrations of the instant compounds.

T1 sequence (Q07343 whole entry): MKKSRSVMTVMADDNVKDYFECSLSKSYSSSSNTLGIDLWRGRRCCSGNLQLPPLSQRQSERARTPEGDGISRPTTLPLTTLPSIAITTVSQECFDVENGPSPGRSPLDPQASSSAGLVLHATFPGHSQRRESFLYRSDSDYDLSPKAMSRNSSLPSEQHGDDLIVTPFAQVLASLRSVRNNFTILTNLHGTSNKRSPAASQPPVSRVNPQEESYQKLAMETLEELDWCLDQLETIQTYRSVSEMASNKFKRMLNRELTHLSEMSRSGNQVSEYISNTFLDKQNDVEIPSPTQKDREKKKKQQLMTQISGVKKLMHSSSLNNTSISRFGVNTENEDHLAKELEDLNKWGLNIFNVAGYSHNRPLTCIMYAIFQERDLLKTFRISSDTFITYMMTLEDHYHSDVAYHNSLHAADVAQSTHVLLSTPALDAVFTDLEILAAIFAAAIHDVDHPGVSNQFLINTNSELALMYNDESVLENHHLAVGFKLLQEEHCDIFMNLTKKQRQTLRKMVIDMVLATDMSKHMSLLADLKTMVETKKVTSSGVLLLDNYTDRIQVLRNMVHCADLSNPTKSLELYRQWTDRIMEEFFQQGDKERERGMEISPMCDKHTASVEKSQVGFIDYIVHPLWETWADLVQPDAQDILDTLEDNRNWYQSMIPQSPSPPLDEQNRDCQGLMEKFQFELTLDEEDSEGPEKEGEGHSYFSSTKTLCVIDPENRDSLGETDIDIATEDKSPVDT

Row | SMILES | % Activity (% activity of PDE IV B versus control) (Test Dose 10^−6 M) [%] | % Activity (% activity of PDE IV B versus control) (Test Dose 10^−7 M) [%]
1 | COc1cnc(C(C)(O)Cn2cc[nH]c2=O)cc1OCCCCCc1ccccc1 (racemic) [Compound 23, (±)-1,3-dihydro-1-[2-hydroxy-2-[5-methoxy-4-[(5-phenylpentyl)oxy]-2-pyridinyl]propyl]-2H-imidazol-2-one] | 35 | 
2 | COc1cnc(C(O)Cn2cc[nH]c2=O)cc1OCCCCCc1ccccc1 (stereo not drawn) [Compound 18, 1,3-dihydro-1-[2-hydroxy-2-[5-methoxy-4-[(5-phenylpentyl)oxy]-2-pyridinyl]ethyl]-2H-imidazol-2-one] | 77 | 
3 | COc1ccc(C(C)Cn2cc[nH]c2=NC#N)nc1OC1CCCC1 (racemic) [Compound 22, (±)-[1-[2-[6-(cyclopentyloxy)-5-methoxy-2-pyridinyl]propyl]-1,3-dihydro-2H-imidazol-2-ylidene]cyanamide] |  | 25
